According to ChEMBL document CHEMBL5352410, “Discovery of novel selenium-containing azole derivatives as antifungal agents by exploiting the hydrophobic cleft of CYP51” (Eur J Med Chem, 2022):
In brackets after ≈: the same amount, converted by molar mass.

Legend:
Candida parapsilosis = assay: Antifungal activity against Candida parapsilosis by CLSI based broth microdilution method; type: functional; settings: Lodderomyces parapsilosis
[Candida] zeylanoides = Antifungal activity against Candida zeylanoides by CLSI based broth microdilution method; type: functional; settings: Dujonia zeylanoides
[1] = biological target: T1, Lanosterol 14-alpha demethylase (Candida albicans (strain SC5314 / ATCC MYA-2876) (Yeast), UniProt P10613); assay: Inhibition of CYP51 of Candida albicans ATCC SC5314 assessed as decrease in ergosterol level by measuring residual activity at 1 ug/ml incubated for 16 hrs by GC-MS analysis (reference value: 98.3 %); settings: at 1 µg/mL
[2] = biological target: T1, Lanosterol 14-alpha demethylase; assay: Inhibition of CYP51 of Candida albicans ATCC SC5314 assessed as increase in obtusifoliol level at 4 ug/ml incubated for 16 hrs by GC-MS analysis (reference value: 0 %); design: scale not given: the % may be the effect or the level left; settings: at 4 µg/mL
[3] = biological target: T1, Lanosterol 14-alpha demethylase; assay: Inhibition of CYP51 of Candida albicans ATCC SC5314 assessed as increase in lanosterol level at 1 ug/ml incubated for 16 hrs by GC-MS analysis (reference value: 1.7 %); design: scale not given: the % may be the effect or the level left; settings: at 1 µg/mL
[4] = biological target: T1, Lanosterol 14-alpha demethylase; assay: Inhibition of CYP51 of Candida albicans ATCC SC5314 assessed as increase in eburicol level at 2 ug/ml incubated for 16 hrs by GC-MS analysis (reference value: 0 %); design: scale not given: the % may be the effect or the level left; settings: at 2 µg/mL
[5] = biological target: T1, Lanosterol 14-alpha demethylase; assay: Inhibition of CYP51 of Candida albicans ATCC SC5314 assessed as decrease in ergosterol level by measuring residual activity at 2 ug/ml incubated for 16 hrs by GC-MS analysis (reference value: 98.3 %); settings: at 2 µg/mL
Candida albicans [6] = assay: Antibiofilm activity against Candida albicans CPCC400616 assessed as sessile minimum inhibitory concentration measured after 6 hrs by XTT assay; type: functional
[7] = biological target: T1, Lanosterol 14-alpha demethylase; assay: Inhibition of CYP51 of Candida albicans ATCC SC5314 assessed as decrease in ergosterol level by measuring residual activity at 4 ug/ml incubated for 16 hrs by GC-MS analysis (reference value: 98.3 %); settings: at 4 µg/mL
Candida albicans [8] = assay: Antifungal activity against FCZ-resistant Candida albicans CaR by CLSI based broth microdilution method; type: functional
[9] = biological target: T1, Lanosterol 14-alpha demethylase; assay: Inhibition of CYP51 of Candida albicans ATCC SC5314 assessed as increase in lanosterol level at 4 ug/ml incubated for 16 hrs by GC-MS analysis (reference value: 1.7 %); design: scale not given: the % may be the effect or the level left; settings: at 4 µg/mL
[10] = biological target: T1, Lanosterol 14-alpha demethylase; assay: Inhibition of CYP51 of Candida albicans ATCC SC5314 assessed as increase in obtusifoliol level at 1 ug/ml incubated for 16 hrs by GC-MS analysis (reference value: 0 %); design: scale not given: the % may be the effect or the level left; settings: at 1 µg/mL
Cryptococcus neoformans = assay: Antifungal activity against Cryptococcus neoformans by CLSI based broth microdilution method; type: functional
Candida albicans [11] = assay: Antifungal activity against Candida albicans by CLSI based broth microdilution method; type: functional
[12] = biological target: T1, Lanosterol 14-alpha demethylase; assay: Inhibition of CYP51 of Candida albicans ATCC SC5314 assessed as increase in lanosterol level at 2 ug/ml incubated for 16 hrs by GC-MS analysis (reference value: 1.7 %); design: scale not given: the % may be the effect or the level left; settings: at 2 µg/mL
[13] = biological target: T1, Lanosterol 14-alpha demethylase; assay: Inhibition of CYP51 of Candida albicans ATCC SC5314 assessed as increase in eburicol level at 4 ug/ml incubated for 16 hrs by GC-MS analysis (reference value: 0 %); design: scale not given: the % may be the effect or the level left; settings: at 4 µg/mL
Candida albicans [14] = assay: Antifungal activity against FCZ-resistant Candida albicans 901 by CLSI based broth microdilution method; type: functional
Candida albicans [15] = assay: Antibiofilm activity against Candida albicans SC5314 assessed as sessile minimum inhibitory concentration measured after 1.5 hrs by XTT assay; type: functional
Candida albicans [16] = assay: Antifungal activity against FCZ-resistant Candida albicans 904 by CLSI based broth microdilution method; type: functional
[17] = biological target: T1, Lanosterol 14-alpha demethylase; assay: Inhibition of CYP51 of Candida albicans ATCC SC5314 assessed as increase in eburicol level at 1 ug/ml incubated for 16 hrs by GC-MS analysis (reference value: 0 %); design: scale not given: the % may be the effect or the level left; settings: at 1 µg/mL
Candida albicans [18] = assay: Antibiofilm activity against Candida albicans SC5314 assessed as sessile minimum inhibitory concentration measured after 24 hrs by XTT assay; type: functional
[19] = biological target: T1, Lanosterol 14-alpha demethylase; assay: Inhibition of CYP51 of Candida albicans ATCC SC5314 assessed as decrease in ergosterol level by measuring residual activity at 8 ug/ml incubated for 16 hrs by GC-MS analysis (reference value: 98.3 %); settings: at 8 µg/mL
Candida albicans [20] = assay: Antibiofilm activity against Candida albicans SC5314 assessed as sessile minimum inhibitory concentration measured after 3 hrs by XTT assay; type: functional
Candida albicans [21] = assay: Antibiofilm activity against Candida albicans CPCC400616 assessed as sessile minimum inhibitory concentration measured after 1.5 hrs by XTT assay; type: functional
[22] = biological target: T1, Lanosterol 14-alpha demethylase; assay: Inhibition of CYP51 of Candida albicans ATCC SC5314 assessed as increase in eburicol level at 8 ug/ml incubated for 16 hrs by GC-MS analysis (reference value: 0 %); design: scale not given: the % may be the effect or the level left; settings: at 8 µg/mL
Candida albicans [23] = assay: Antifungal activity against FCZ-resistant Candida albicans 17# by CLSI based broth microdilution method; type: functional
[24] = biological target: T1, Lanosterol 14-alpha demethylase; assay: Inhibition of CYP51 of Candida albicans ATCC SC5314 assessed as increase in obtusifoliol level at 8 ug/ml incubated for 16 hrs by GC-MS analysis (reference value: 0 %); design: scale not given: the % may be the effect or the level left; settings: at 8 µg/mL
Candida albicans [25] = assay: Antibiofilm activity against Candida albicans CPCC400616 assessed as sessile minimum inhibitory concentration measured after 3 hrs by XTT assay; type: functional
[26] = biological target: T1, Lanosterol 14-alpha demethylase; assay: Inhibition of CYP51 of Candida albicans ATCC SC5314 assessed as increase in obtusifoliol level at 2 ug/ml incubated for 16 hrs by GC-MS analysis (reference value: 0 %); design: scale not given: the % may be the effect or the level left; settings: at 2 µg/mL
Aspergillus fumigatus = assay: Antifungal activity against Aspergillus fumigatus by CLSI based broth microdilution method; type: functional
Nakaseomyces glabratus = assay: Antifungal activity against Candida glabrata by CLSI based broth microdilution method; type: functional
Pichia kudriavzevii = assay: Antifungal activity against Pichia kudriavzevii by CLSI based broth microdilution method; type: functional
Candida albicans [27] = assay: Antifungal activity against Candida albicans sc5314 by CLSI based broth microdilution method; type: functional
[28] = biological target: T1, Lanosterol 14-alpha demethylase; assay: Inhibition of CYP51 of Candida albicans ATCC SC5314 assessed as increase in lanosterol level at 8 ug/ml incubated for 16 hrs by GC-MS analysis (reference value: 1.7 %); design: scale not given: the % may be the effect or the level left; settings: at 8 µg/mL
Candida albicans [29] = assay: Antibiofilm activity against Candida albicans SC5314 assessed as sessile minimum inhibitory concentration measured after 6 hrs by XTT assay; type: functional
Candida albicans [30] = assay: Antibiofilm activity against Candida albicans CPCC400616 assessed as sessile minimum inhibitory concentration measured after 24 hrs by XTT assay; type: functional
Candida albicans [31] = assay: Antifungal activity against FCZ-resistant Candida albicans 632 by CLSI based broth microdilution method; type: functional

T1 sequence (P10613 whole entry): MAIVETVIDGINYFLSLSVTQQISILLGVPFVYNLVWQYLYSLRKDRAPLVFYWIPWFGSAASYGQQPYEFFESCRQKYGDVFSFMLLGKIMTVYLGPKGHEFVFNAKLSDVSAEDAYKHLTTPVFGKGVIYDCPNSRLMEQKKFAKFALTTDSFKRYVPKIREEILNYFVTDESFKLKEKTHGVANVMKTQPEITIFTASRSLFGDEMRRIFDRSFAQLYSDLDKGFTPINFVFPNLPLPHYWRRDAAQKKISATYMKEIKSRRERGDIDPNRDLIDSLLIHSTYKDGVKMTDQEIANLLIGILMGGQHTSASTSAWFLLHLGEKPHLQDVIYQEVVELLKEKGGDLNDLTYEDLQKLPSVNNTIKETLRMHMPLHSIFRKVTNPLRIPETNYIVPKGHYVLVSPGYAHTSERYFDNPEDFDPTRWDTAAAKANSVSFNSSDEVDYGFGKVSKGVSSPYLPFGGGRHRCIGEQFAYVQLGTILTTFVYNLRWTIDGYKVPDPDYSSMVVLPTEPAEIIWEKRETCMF

OC(Cn1cncn1)(Cn1cncn1)c1ccc(F)cc1F [FLUCONAZOLE]
MIC (Candida parapsilosis): 4 µg/mL (≈ 13.1 µM) | MIC ([Candida] zeylanoides): 2 µg/mL (≈ 6.53 µM) | Activity [1]: 3.9% | Activity [2]: 12.5% | Activity [3]: 14.9% | Activity [4]: 68.7% | Activity [5]: 2.5% | MIC50 (Candida albicans [6]): > 1020 µg/mL | MIC80 (Candida albicans [6]): > 1020 µg/mL | Activity [7]: 2.5% | MIC (Candida albicans [8]): > 64 µg/mL | Activity [9]: 15.4% | Activity [10]: 13.9% | MIC (Cryptococcus neoformans): 4 µg/mL (≈ 13.1 µM) | MIC (Candida albicans [11]): 4 µg/mL (≈ 13.1 µM) | Activity [12]: 15.7% | Activity [13]: 69.6% | MIC (Candida albicans [14]): > 64 µg/mL | MIC50 (Candida albicans [15]): > 1020 µg/mL | MIC80 (Candida albicans [15]): > 1020 µg/mL | MIC (Candida albicans [16]): > 64 µg/mL | Activity [17]: 67.3% | MIC50 (Candida albicans [18]): > 1020 µg/mL | MIC80 (Candida albicans [18]): > 1020 µg/mL | Activity [19]: 1.1% | MIC50 (Candida albicans [20]): > 1020 µg/mL | MIC80 (Candida albicans [20]): > 1020 µg/mL | MIC50 (Candida albicans [21]): > 1020 µg/mL | MIC80 (Candida albicans [21]): > 1020 µg/mL | Activity [22]: 69.9% | MIC (Candida albicans [23]): > 64 µg/mL | Activity [24]: 14.8% | MIC50 (Candida albicans [25]): > 1020 µg/mL | MIC80 (Candida albicans [25]): > 1020 µg/mL | Activity [26]: 13.1% | MIC (Aspergillus fumigatus): > 64 µg/mL | MIC (Nakaseomyces glabratus): 32 µg/mL (≈ 104 µM) | MIC (Pichia kudriavzevii): 32 µg/mL (≈ 104 µM) | MIC (Candida albicans [27]): 1 µg/mL (≈ 3.27 µM) | Activity [28]: 14.3% | MIC50 (Candida albicans [29]): > 1020 µg/mL | MIC80 (Candida albicans [29]): > 1020 µg/mL | MIC50 (Candida albicans [30]): > 1020 µg/mL | MIC80 (Candida albicans [30]): > 1020 µg/mL | MIC (Candida albicans [31]): > 64 µg/mL
